From patent publication US9943525B2, “Composition for reducing cell senescence comprising Rho-kinase inhibitor and use thereof” (Samsung Electronics Co., Ltd., priority 2014, dated 2018)

Key:
Type in all cases: cell-based, human
[1] = tested on: senescent fibroblasts (after 37 cell passages); assay: lipofuscin autofluorescence by flow cytometry; conditions: 4 weeks, vs control, p<0.05, FIG. 9
Description: In addition, amounts of lipofuscin accumulated in the cultured cells were measured. Senescent cells (After 37 cell passages) were cultured for 4 weeks in a 5% CO2 incubator at 37° C. in the presence of 5 μM of Y-27632, 5 μM of FASUDIL, and 0.5 μM of SR3677. The culture media were changed at every 4 days with new culture media supplemented with 5 μM of Y-27632, 5 μM of FASUDIL, and 0.5 μM of SR3677. Since lipofuscin has autofluorescence characteristics, light having a wavelength of 488 nm was irradiated to the cells by using a FACSCaliber (Beckton Dickinson) and light emission at 520 nm was measured. The results are analyzed using a Cell Quest 3.2 software (Beckton Dickinson). FIG. 9 is a graph displaying amounts of lipofuscin in fibroblasts (after 37 cell passages) cultured in the presence of Rho-kinase inhibitors Y-27632 (5 μM), Fasudil (5 μM), and SR3677 (0.5 μM). […] In FIG. 9, * indicates statistically significant (p<0.05).

[2] = tested on: senescent fibroblasts (after 37 cell passages); assay: mitochondrial ROS (MitoSOX) by flow cytometry; conditions: vs control, p<0.05, FIG. 10
Description: In addition, damage of mitochondria was identified by measuring reactive oxygen species (ROS) and mitochondrial membrane potentials which are well known in the art. ROS were measured using a 0.2 μM MitoSOX (Invitrogen, M3608) according to manufacturer's manuals. Light having a wavelength of 520 nm was irradiated to the cells using a FACSCaliber (Beckton Dickinson), and light emission was measured at 580 nm. The results were analyzed using a Cell Quest 3.2 software (Beckton Dickinson). […] In FIG. 10, * indicates statistically significant (p<0.05).

[3] = tested on: senescent fibroblasts (after 37 cell passages); assay: mitochondrial membrane potential (JC-1) by flow cytometry; conditions: vs control, p<0.05, FIG. 11
Description: Mitochondrial membrane potentials were measured using a MitoProbe™ JC-1 Assay kit for Flow Cytometry (Life technologies, T3168) according to manufacturer's manuals. JC-1 is accumulated in mitochondria in a potential-dependent manner, and this accumulation is identified by fluorescence emission shift from green (about 529 nm) to red (about 590 nm). As a result, mitochondrial depolarization is identified by a decrease in a red/green fluorescence ratio. The mitochondrial membrane potentials were measured by excitation at 488 nm using a FACSCaliber (Beckton Dickinson) and using a flow cytometer by using 530/30 nm and 585/42 nm band pass filters. The results were analyzed using Cell Quest 3.2 software (Beckton Dickinson). FIG. 11 is a graph displaying action potentials of mitochondria. […] In FIG. 11, * indicates statistically significant (p<0.05). In FIG. 11, the vertical axis is mitochondrial membrane potential. “MMP” refers to mitochondria membrane potential.

[4] = tested on: senescent progeric fibroblasts (cell passage 17); assay: as above; conditions: vs control, p<0.05, FIG. 20
Description: Progeric fibroblasts (Hutchinson-Gilford Progeria Syndrome Skin Fibroblasts, Coriell Cell Repositories, AG03198 B) were cultured in Dulbecco's Modified Eagle's Media (DMEM) supplemented with 10% fetal bovine serpm (FBS) and 100 unit/ml of penicillin, and 100 μg/ml of streptomycin (two antibiotics are purchased from Gibro-BRL and Grand Island, N.Y.) in a 5% CO2 incubator at 37° C. Subculturing was initiated when the cells were approximately 85% confluent in plates. Early subcultures were performed at a split ratio of 1:4, and later subcultures were performed at a split ratio of 1:2. When cell doubling time was 14 days, the cells were regarded as senescent progeric fibroblasts (cell passages 16 to 17).
The senescent progeric fibroblasts (cell passage 17) were seeded on each well of a 6-well plate in a concentration of 2,000 cells/well and cultured in the presence of 5 μM of Y-27632, 5 μM of FASUDIL, and 0.5 μM of SR3677 for 4 weeks in a 5% CO2 incubator at 37° C. The culture media were changed at every 4 days with new culture media supplemented with 5 μM of Y-27632, 5 μM of FASUDIL, and 0.5 μM of SR3677. A negative control group was prepared in the same manner, except that 0.05 (v/v) % of DMSO was used.
Mitochondrial membrane potentials were measured using a MitoProbe™ JC-1 Assay kit for Flow Cytometry (Life technologies, T3168) according to manufacturer's manuals. JC-1 is accumulated in mitochondria in a potential-dependent manner, and this accumulation is identified by fluorescence emission shift from green (about 529 nm) to red (about 590 nm). As a result, mitochondrial depolarization is identified by a decrease in a red/green fluorescence ratio. The mitochondrial membrane potentials were measured by excitation at 488 nm using a FACSCaliber (Beckton Dickinson) and using a flow cytometer by using 530/30 nm and 585/42 nm band pass filters. The results were analyzed using Cell Quest 3.2 software (Beckton Dickinson). FIG. 20 is a graph displaying action potentials of mitochondria. […] In FIG. 20, * indicates statistically significant (p<0.05). […]

[5] = tested on: senescent progeric fibroblasts (cell passage 17); assay: DNA comet assay; conditions: 4 weeks, vs DMSO, p<0.05, FIG. 21
Description: The degrees of restoration of DNA damage in senescent progeric fibroblasts by the Rho-kinase inhibitors were identified by a DNA comet assay. This method is performed by detecting DNA fractions cleaved by ultraviolet (UV) irradiation. This method is based on gel electrophoresis. During gel electrophoresis, damaged DNA migrates farther than normal DNA forming a tail like a comet-tail. Then, a slide was stained with SYBR Green, and the length of a tail of a DNA fraction was measured using a fluorescence microscope to identify the degree of DNA damage.
FIG. 21 is a graph displaying degrees of DNA damage in progeric fibroblasts (cell passage 17) cultured in the presence of Rho-kinase inhibitors Y-27632 (5 μM), Fasudil (5 μM), and SR3677 (0.5 μM) measured by a DNA comet assay indicating the degree of DNA damage. In FIG. 21, senescent progeric cells (cell passage 17) were cultured in culture media supplemented with 5 μM of Y-27632, 5 μM of FASUDIL, and 0.5 μM of SR3677 for 4 weeks in a 5% CO2 incubator at 37° C. The culture media were changed at every 4 days with new culture media supplemented with 5 μM of Y-27632, 5 μM of FASUDIL, and 0.5 μM of SR3677. Cells having a cell doubling time of 6 to 7 days were used as young cells. A negative control group was prepared in the same manner, except that DMSO was used. […] Thus, it was confirmed that the degree of DNA damage increases in senescent cells. […] In FIG. 21, * indicates statistically significant (p<0.05).

| SMILES | amounts of lipofuscin in cells ([1]; 5 μM) | ROS ([2]; 5 μM) | action potentials of mitochondria (mitochondrial membrane potential) ([3]; 5 μM) | action potentials of mitochondria (mitochondrial membrane potential) ([4]; 5 μM) | DNA damage (Tail Moment) ([5]; 5 μM) | amounts of lipofuscin in cells ([1]; 0.5 μM) | ROS ([2]; 0.5 μM) | action potentials of mitochondria (mitochondrial membrane potential) ([3]; 0.5 μM) | action potentials of mitochondria (mitochondrial membrane potential) ([4]; 0.5 μM) | DNA damage (Tail Moment) ([5]; 0.5 μM) |
| --- | --- | --- | --- | --- | --- | --- | --- | --- | --- | --- |
| O=S(=O)(c1cccc2cnccc12)N1CCCNCC1 [FASUDIL, 5-(1,4-diazepane-1-sulfonyl)isoquinoline] | significantly reduced | significantly reduced | significantly increased | significantly increased | considerably reduced |  |  |  |  |  |
| CN(C)CCOc1cc(-c2cn[nH]c2)ccc1NC(=O)C1COc2ccccc2O1 (stereo not drawn) [SR3677] |  |  |  |  |  | significantly reduced | significantly reduced | significantly increased | significantly increased | considerably reduced |
| C[C@@H](N)[C@H]1CC[C@H](C(=O)Nc2ccncc2)CC1 [Y-27632, (1R,4R)-4-((R)-1-aminoethyl)-N-(pyridin-4-yl)cyclohexanecarboxamide] | significantly reduced | significantly reduced | significantly increased | significantly increased | considerably reduced |  |  |  |  |  |
